Reference: US8343945B2, “Carriers, formulations, methods for formulating unstable active agents for external application and uses thereof” (Foamix Ltd., priority 2007, dated 2013)
Like-named read-outs stand apart in the source and are kept apart here.

Experiments:
[1] = cited from earlier work
[2] = powder for IV administration reconstituted with sterile water for injection; cited from earlier work
[3] = cited from earlier work; remark: listed apart in the source
[4] = Description: In one or more embodiments of the present disclosure, the foamable composition includes a potent solvent, in addition to or in place of one of the hydrophobic solvents, polar solvents or emollients of the composition. A potent solvent is a solvent other than mineral oil that solubilizes a specific active agent substantially better than a hydrocarbon solvent such as mineral oil or petrolatum.
[5] = Doxycycline Hyclate compatibility test with excipients; format: physicochemical; conditions: for Compatibility with Doxycycline Hyclate: Summary, compatibility tested after the storage for up to 3 weeks
Method: Different compositions of hydrophilic and hydrophobic solvents containing Doxycycline Hyclate (Set I and Set II) and Doxycycline Monohydrate (Set III) were prepared by weighing the antibiotic in a glass vial and shaking overnight with each solvent investigated.
Group II included Doxycycline Hyclate mixed with various vehicles with addition of antioxidants like alpha tocopherol, butylated hydroxytolyene (BHT), ascorbic acid.

[6] = Minocycline in hydrophilic vehicles dried with Magnesium Sulphate; format: physicochemical; conditions: vehicle dried by the Magnesium Sulfate procedure
Method: A special procedure for drying of water residues was developed. Magnesium Sulphate was added to the glass beaker filled with one of the hydrophilic vehicles. The mixture was stirred during overnight and centrifuged the following morning. Clear supernatant was collected in a separate vessel and stored in a dessicator.
The following were tested using the above procedure: mixtures of Minocycline with PEG 200, PEG 400, glycerol, prolylene glycol, polyethylene glycol.

[7] = Minocycline HCl compatibility tests with excipients (colour change, HPLC assay); format: physicochemical; conditions: for Compatibility with Minocycline HCL: Summary, compatibility tested after the storage for up to 3 weeks
Method: About 0.5 g foam or pre-foam formulation is dissolved with diluent (65% phosphate buffer: 35% Acetonitrile (ACN)) in a 25 mL volumetric flask. The sample is shaken […] on an inverted shaker stand for 10 min at room temperature. The resulting suspension is centrifuged for 5 minutes at 4000 rpm. The supernatant is separated by vacuum pump and filtered thereafter through a 0.45 μm PTFE+GL filter. The first few drops of the filtrate are discarded. The resultant clear solution layer is analyzed by HPLC using columnRP-8. The content of MCH is calculated against an MCH standard 0.4 mg/mL (concentration). The content of 4-epiminocycline is calculated against MCH standard 0.02 mg/mL (concentration).
Color is tested by visual observation and in particular by comparison to “Pantone® formula guide solid uncoated” colors. […] Minocycline changes color to orange/greenish with oxidation or complexation. These oxidized colors are not desirable. Colors such as 609U/608U/610U are indicative of degradation by the tetracycline antibiotic.
For convenience the excipients were divided into four different groups (I-IV).
Different compositions of hydrophilic and hydrophobic solvents containing minocycline HCl were prepared by weighing the antibiotic in a glass vial and shaking overnight with each solvent investigated (Group I and II).
Mixtures of Minocycline HCl with solid excipients like titanium dioxide, stearyl alcohol, myristyl alcohol etc were prepared by suspending Minocycline HCl in oil with stirring and then adding the solid ingredient as a powder with stirring at room temperature (Group III an IV).
Oxidation of minocycline after the storage at various temperatures was detected by color change. Assay for content of the active pharmaceutical ingredient (API) and degradation product (4-epiminocycline) was determined in some samples.
A series of experiments were performed to evaluate which mixture of components/ingredients were compatible or incompatible with minocycline. Each component or combinations of components were mixed with either 1.1% or 2.2% Minocycline HCl. The glass vials containing the formulations were wrapped in aluminum—and were subjected to a range of temperatures 25° C.; 30° C.; 40° C.; 50 C; for between one week to about 3 weeks. The best results are shown as “compatible no oxidation”.

[8] = Doxycycline Monohydrate compatibility test with excipients; format: physicochemical; conditions: for Compatibility with Doxycycline Monohydrate: Summary, compatibility tested after the storage for up to 3 weeks
Method: Different compositions of hydrophilic and hydrophobic solvents containing Doxycycline Hyclate (Set I and Set II) and Doxycycline Monohydrate (Set III) were prepared by weighing the antibiotic in a glass vial and shaking overnight with each solvent investigated. Mixtures of Doxycycline salts 1.04% w/w with solid excipients were prepared in a similar way as for Minocycline HCl.
A similar compatibility test was performed on another form of Doxycycline-Doxycycline Monohydrate. Table 17b and Table 18.

[9] = waterless medium with alpha-tocopherol and ascorbic acid

C[C@H]1c2cccc(O)c2C(=O)C2=C(O)[C@]3(O)C(=O)C(C(N)=O)=C(O)[C@@H](N(C)C)[C@@H]3[C@@H](O)[C@@H]21 [doxycycline monohydrate]
Solubility in alcohol [1]: sparingly soluble | Solubility in water [1]: very slightly soluble

Doxycycline hyclate
pH of solution [2]: 1.8-3.3 | IV solution stable for ([3]; 0.1-1 mg/mL in 0.9% sodium chloride or 5% dextrose, 25° C.): 48 h | IV solution stable for ([3]; 0.1-1 mg/mL in Ringer's, 10% invert sugar, Normosol or Plasma-Lyte in dextrose, room temperature): 12 h | IV solution must be infused within ([3]; 0.1-1 mg/mL in lactated Ringer's injection or 5% dextrose in lactated Ringer's): ≤ 6 h | IV solution stable for ([3]; 2-8° C., protected from direct sunlight and artificial light): 72 h | Solubility in alcohol [1]: slightly soluble | Solubility in solutions of alkali hydroxides and carbonates ([1]; solutions of alkali hydroxides and carbonates): soluble | Solubility in water [1]: soluble

Cc1ncc([N+](=O)[O-])n1CCO [Metronidazole]
Solubility in dimethyl isosorbide [4]: more than 1% | Solubility in mineral oil [4]: < 0.01%

OCC(O)CO [Glycerol]
Compatibility with Doxycycline Hyclate [5]: No | Oxidation of Minocycline HCL after dissolution in dried vehicle [6]: oxidized quickly | Compatibility with Minocycline HCl [7]: intensive oxidation | Compatibility with Minocycline HCL [7]: No | Compatibility with Doxycycline Monohydrate [8]: No

CC(=O)[C@H]1CC[C@H]2[C@@H]3CCC4=CC(=O)CC[C@]4(C)[C@H]3CC[C@]12C [Progesterone]
Solubility in mineral oil [4]: < 0.001%

Cc1cnc(NC(=O)C2=C(O)c3ccccc3S(=O)(=O)N2C)s1 [Meloxicam]
Solubility in mineral oil [4]: < 0.001%

CC(=O)N1CCN(c2ccc(OCC3COC(Cn4ccnc4)(c4ccc(Cl)cc4Cl)O3)cc2)CC1 (centres unmarked) [Ketoconazole]
Solubility in dimethyl isosorbide [4]: more than 1% | Solubility in glycofurol [4]: more than 1% | Solubility in mineral oil [4]: < 0.01% | Solubility in propylene glycol [4]: more than 1%

CC(O)CO (centres unmarked) [Propylene glycol]
Compatibility with Doxycycline Hyclate [5]: No | Oxidation of Doxycycline Hyclate despite added anti oxidants [5, 9]: did not prevent the oxidation | Oxidation of Minocycline HCL after dissolution in dried vehicle [6]: oxidized quickly | Compatibility with Minocycline HCL [7]: No | Oxidation of Minocycline HCL despite added anti oxidants [7, 9]: did not prevent the oxidation | Compatibility with Doxycycline Monohydrate [8]: No | Oxidation of Doxycycline Monohydrate despite added anti oxidants [8, 9]: did not prevent the oxidation

C/C(=C\C(=O)OCCCCCCCCC(=O)O)C[C@@H]1OC[C@H](C[C@@H]2O[C@H]2[C@@H](C)[C@H](C)O)[C@@H](O)[C@H]1O [Mupirocin]
Solubility in dimethyl isosorbide [4]: more than 1% | Solubility in glycofurol [4]: more than 1% | Solubility in mineral oil [4]: < 0.01% | Solubility in polyethylene glycol 400 (PEG 400) [4]: more than 1% | Solubility in propylene glycol [4]: more than 1%

CCCCC(=O)O[C@]1(C(=O)CO)[C@@H](C)C[C@H]2[C@@H]3CCC4=CC(=O)C=C[C@]4(C)[C@@]3(F)[C@@H](O)C[C@@]21C [Betamethasone valerate]
Solubility in glycofurol [4]: more than 1% | Solubility in mineral oil [4]: < 0.01%

CCCC(=O)O[C@]1(C(=O)CO)CC[C@H]2[C@@H]3CCC4=CC(=O)CC[C@]4(C)[C@H]3[C@@H](O)C[C@@]21C [Hydrocortisone butyrate]
Solubility in glycofurol [4]: more than 1% | Solubility in mineral oil [4]: < 0.01%

CO[C@H]1CO[C@H]2[C@@H]1OC[C@H]2OC [Dimethyl Isosorbide]
Visual inspection at T-0 ([5]; Mixtures of 1.04% w/w of Doxycycline Hyclate with the ingredient, T-0 (two-week study)): yellow solution | Visual inspection after the storage at 25° C. ([5]; Mixtures of 1.04% w/w of Doxycycline Hyclate with the ingredient, stored at 25° C. for two weeks): Yellow solution | Visual inspection after the storage at 40° C. ([5]; Mixtures of 1.04% w/w of Doxycycline Hyclate with the ingredient, stored at 40° C. for two weeks): Brownish orange | Visual inspection after the storage at 50° C. ([5]; Mixtures of 1.04% w/w of Doxycycline Hyclate with the ingredient, stored at 50° C. for two weeks): Orange solution | Compatibility with Doxycycline Hyclate [5]: No | Compatibility with Minocycline HCL [7]: No | Visual inspection at T-0 ([8]; Mixtures of 1.04% w/w of Doxycycline Monohydrate with the ingredient, T-0): yellow solution | Visual inspection after the storage at 25° C. ([8]; Mixtures of 1.04% w/w of Doxycycline Monohydrate with the ingredient, stored at 25° C. for two weeks): orange solution | Visual inspection after the storage at 40° C. ([8]; Mixtures of 1.04% w/w of Doxycycline Monohydrate with the ingredient, stored at 40° C. for two weeks): orange orange | Visual inspection after the storage at 50° C. ([8]; Mixtures of 1.04% w/w of Doxycycline Monohydrate with the ingredient, stored at 50° C. for two weeks): Orange solution | Compatibility with Doxycycline Monohydrate [8]: No
